What follows are molecules tested on Aβ1-42 production (assay: Cellular assay for inhibition of Aβ1-42 production (H4 APP751 SWE clone 8.20)). Settings: 19 h, H4 APP751 SWE clone 8.20 cells, 19 h incubation; class symbols; read-out: Activity Rating (Aβ42 cellular IC50).
Assay type: cell-based
How it was run: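 H4 cells stably expressing Swedish-mutant APP751 incubated with compound 19 h at 37 °C, 5% CO2. Secreted Aβ42 detected by HTRF with Aβ42 neoepitope antibody 565 (0.8 ng/well) and N-terminal 26D6 (75 ng/well), overnight at 4 °C. IC50 obtained by curve fitting.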

| IC50 [nM] | Structure (SMILES) |
| --- | --- |
| 10 to 100 | Cc1ncnn1-c1ccc(Nc2nc3c(c(N(C)C)n2)COCC3c2ccc(Cl)cc2)cc1F (single isomer, unassigned) [Example 67A, 8-(4-chlorophenyl)-N^2-(3-fluoro-4-(5-methyl-1H-1,2,4-triazol-1-yl)phenyl)-N^4,N^4-dimethyl-7,8-dihydro-5H-pyrano[4,3-d]pyrimidine-2,4-diamine] |
| 10 to 100 | COc1cc(Nc2nc3c(c(N4CCC[C@@H]4C)n2)COC3c2ccc(F)cc2)ccc1-n1cnc(Cl)c1 (single isomer, unassigned) [Example 74A] |

Same assay, conditions: 19 h, H4 APP751 SWE clone 8.20 cells, 19 h incubation; read-out: Activity Rating (Aβ42 cellular IC50), numeric value

| IC50 [nM] | Structure (SMILES) |
| --- | --- |
| 540 | Cc1ncnn1-c1ccc(Nc2nc3c(c(N(C)C)n2)COCC3c2ccc(Cl)cc2)cc1F (single isomer, unassigned) [Example 67B, 8-(4-chlorophenyl)-N^2-(3-fluoro-4-(5-methyl-1H-1,2,4-triazol-1-yl)phenyl)-N^4,N^4-dimethyl-7,8-dihydro-5H-pyrano[4,3-d]pyrimidine-2,4-diamine] |

Same assay, conditions: H4 APP751 SWE clone 8.20 cells, 19 h incubation; class symbols; read-out: Activity Rating (Aβ42 cellular IC50)

| IC50 [nM] | Structure (SMILES) |
| --- | --- |
| 100 to 1000 | COc1cc(Nc2nc3c(c(N4CC(F)(F)C4)n2)COCC3c2ccc(Cl)cc2)ccc1-n1cnc(Cl)c1 (single isomer, unassigned) [Example 66A, N-(4-(4-chloro-1H-imidazol-1-yl)-3-methoxyphenyl)-8-(4-chlorophenyl)-4-(3,3-difluoroazetidin-1-yl)-7,8-dihydro-5H-pyrano[4,3-d]pyrimidin-2-amine] |
| 1.5 to 9.9 | COc1cc(Nc2nc3c(c(N4CC(F)(F)C4)n2)COCC3c2ccc(Cl)cc2)ccc1-n1cnc(Cl)c1 (single isomer, unassigned) [Example 66B, N-(4-(4-chloro-1H-imidazol-1-yl)-3-methoxyphenyl)-8-(4-chlorophenyl)-4-(3,3-difluoroazetidin-1-yl)-7,8-dihydro-5H-pyrano[4,3-d]pyrimidin-2-amine] |
| 1.5 to 9.9 | CNc1nc(Nc2ccc(-n3ncnc3C)c(F)c2)nc2c1COCC2c1ccc(Cl)cc1 (single isomer, unassigned) [Example 69A, 8-(4-chlorophenyl)-N^2-(3-fluoro-4-(5-methyl-1H-1,2,4-triazol-1-yl)phenyl)-N^4-methyl-7,8-dihydro-5H-pyrano[4,3-d]pyrimidine-2,4-diamine] |
| 100 to 1000 | CNc1nc(Nc2ccc(-n3ncnc3C)c(F)c2)nc2c1COCC2c1ccc(Cl)cc1 (single isomer, unassigned) [Example 69B, 8-(4-chlorophenyl)-N^2-(3-fluoro-4-(5-methyl-1H-1,2,4-triazol-1-yl)phenyl)-N^4-methyl-7,8-dihydro-5H-pyrano[4,3-d]pyrimidine-2,4-diamine] |
| 1.5 to 9.9 | CNc1nc(Nc2ccc(-n3cnc(C)c3)c(OC)c2)nc2c1COCC2c1ccc(Cl)cc1 (single isomer, unassigned) [Example 70A, 8-(4-chlorophenyl)-N^2-(3-methoxy-4-(4-methyl-1H-imidazol-1-yl)phenyl)-N^4-methyl-7,8-dihydro-5H-pyrano[4,3-d]pyrimidine-2,4-diamine] |
| 10 to 100 | CNc1nc(Nc2ccc(-n3cnc(C)c3)c(OC)c2)nc2c1COCC2c1ccc(Cl)cc1 (single isomer, unassigned) [Example 70B, 8-(4-chlorophenyl)-N^2-(3-methoxy-4-(4-methyl-1H-imidazol-1-yl)phenyl)-N^4-methyl-7,8-dihydro-5H-pyrano[4,3-d]pyrimidine-2,4-diamine] |
| 1.5 to 9.9 | CNc1nc(Nc2ccc(-n3cnc(C)n3)c(OC)c2)nc2c1COCC2c1ccc(Cl)cc1 (single isomer, unassigned) [Example 71A, 8-(4-chlorophenyl)-N^2-(3-methoxy-4-(3-methyl-1H-1,2,4-triazol-1-yl)phenyl)-N^4-methyl-7,8-dihydro-5H-pyrano[4,3-d]pyrimidine-2,4-diamine] |
| 10 to 100 | CNc1nc(Nc2ccc(-n3cnc(C)n3)c(OC)c2)nc2c1COCC2c1ccc(Cl)cc1 (single isomer, unassigned) [Example 71B, 8-(4-chlorophenyl)-N^2-(3-methoxy-4-(3-methyl-1H-1,2,4-triazol-1-yl)phenyl)-N^4-methyl-7,8-dihydro-5H-pyrano[4,3-d]pyrimidine-2,4-diamine] |
